Literature values, collected in patent US20190336443A1 (Navinta III Inc, priority 2018, published 2019).

How the values were obtained:
[1] = all animal species with adequate studies (rodents and rabbits)
[2] = pH sensitive

Structure (SMILES): NC(=O)c1ncn([C@@H]2O[C@H](CO)[C@@H](O)[C@H]2O)n1 [Ribavirin, 1-beta-D-ribofuranosyl-1H-1,2,4-triazole-3-carboxamide]
- teratogenic and/or embryocidal potential [1]: significant teratogenic and/or embryocidal potential
- degradation in a liquid formulation [2]: readily degraded by hydrolysis
- solubility in ethanol: slight solubility
